Source: article PMC10733469, “Antiviral activity of chrysin and naringenin against porcine epidemic diarrhea virus infection” (Frontiers in Veterinary Science, 2023)
≈ marks a conversion by molar mass, not a printed value. Like-named read-outs stand apart in the source and are kept apart here. One block for each compound: values may come before it.

Columns and labels:
DENV-2 [1] = tested on: DENV-2; parameters: method as in doi:10.1088/1755-1315/462/1/012033; details: cited from earlier work
[2] = tested on: human Huh 7 it-1 cell line; parameters: method as in doi:10.1088/1755-1315/462/1/012033; details: cited from earlier work
PEDV [3] = assay: Antiviral activity assay, PEDV strain not stated; details: Porcine epidemic diarrhea virus, read-out: IC50 values against PEDV
PEDV CV777 [4] = assay: Antiviral activity assay (MTT, virus inhibition rate), PEDV CV777; details: Porcine epidemic diarrhea virus, Vero C1008, read-out: IC50 PEDV CV777
PEDV DY [5] = assay: Antiviral activity assay (MTT, virus inhibition rate), PEDV DY; details: Porcine epidemic diarrhea virus, Vero C1008, read-out: IC50 PEDV DY
Cytotoxicity assay (MTT) = format: cell-based; details: African green monkey
Description: (§1) Then, different concentrations of compounds in DMEM were added to cells and incubated for another 48 h. […] MTT solution (10 μL per well) was added and incubated for another 4 h at 37°C, discarding the native compounds and using dimethyl sulfoxide (DMSO) to dissolve products for 10 min at 37°C. Microplate reader (BioTek, Winooski, VT, United States) was used to measure the 96-well plate at 570 nm, and the cell viability (%) was calculated by OD values ([23]). […] The percentage of relative cell viability was calculated according to the formula: […]%=[…]

PEDV DY [6] = assay: Virus titration (TCID50, Reed-Muench), PEDV DY; format: cell-based, porcine epidemic diarrhea virus; details: for virus titer vs virus control group: PEDV DY, 24, 36 and 48 hpi, p < 0.01
DENV-2 [7] = tested on: DENV-2; parameters: method as in doi:10.1186/1743-422X-8-560; details: 50 μg/mL after virus incubation; cited from earlier work
PEDV [8] = assay: Time-of-addition assay, viral entry stage (qPCR); format: cell-based, porcine epidemic diarrhea virus
PEDV CV777 [9] = assay: Virus titration (TCID50, Reed-Muench), PEDV CV777; format: cell-based, porcine epidemic diarrhea virus; details: for virus titer vs virus control group: PEDV CV777, 24, 36 and 48 hpi, p < 0.01
PEDV [10] = assay: Indirect immunofluorescence assay of viral load; details: Vero E6 cells, 48 h after infection, concentration dependent
PEDV [11] = assay: Time-of-addition assay, prophylactic stage (qPCR, western blot); format: cell-based, porcine epidemic diarrhea virus; details: for viral mRNA quantitation: qPCR; for expression level of PEDV N protein: western blot, concentration dependent
PEDV [12] = assay: Time-of-addition assay, post-viral entry stage (qPCR, western blot); format: cell-based, porcine epidemic diarrhea virus; details: for viral nucleic acid copy numbers vs control group: qPCR, p < 0.05; for expression level of PEDV N protein: western blot, concentration dependent
PEDV [13] = assay: Viral quantification by qPCR at different time points; format: cell-based, porcine epidemic diarrhea virus; details: 24 hpi and 48 hpi, p < 0.001
Vero E6 cells = assay: Cytotoxicity assay (MTT); format: cell-based
Description: as §1

enterovirus 71 = tested on: enterovirus 71; parameters: method as in PMID 24598537; details: replication of enterovirus 71, by inhibiting 3CLpro protein activity; cited from earlier work
mice = details: animal tests; cited from earlier work
[14] = Vero E6 cells, MTT, 48 h incubation, read-out: CC50

Compound: O=c1c(O)c(-c2ccc(O)c(O)c2)oc2cc(O)cc(O)c12 [quercetin]
IC50 against DENV-2 (DENV-2 [1]): 18.41 µg/mL (≈ 60.9 µM)
CC50 [2]: 217.113 µg/mL (≈ 718 µM)
IC50 (PEDV [3]): > 100 µg/mL

IC50 (PEDV [3]): > 100 µg/mL
Compound: CC1(C)[C@@H](O)CC[C@]2(C)[C@H]3C(=O)C=C4[C@@H]5C[C@@](C)(C(=O)O)CC[C@]5(C)CC[C@@]4(C)[C@]3(C)CC[C@@H]12 [Glycyrrhetinic acid, glycyrrhetinic acid]
IC50 (PEDV CV777 [4]): > 100 µg/mL
IC50 (PEDV DY [5]): > 100 µg/mL
CC50 at 48 h (Cytotoxicity assay (MTT)): 17.4 ± 4.61 µg/mL (≈ 37 µM)

Compound: O=C1C[C@@H](c2ccc(O)cc2)Oc2cc(O)cc(O)c21 [Naringenin, naringenin]
virus titer vs virus control group (PEDV DY [6]): significantly lower
IC50 (PEDV CV777 [4]): 4.39 ± 0.96 µg/mL (≈ 16.1 µM)
IC50 (PEDV DY [5]): 4.5 ± 2.25 µg/mL (≈ 16.5 µM)
reduction of DENV-2 RNA levels (DENV-2 [7]): 50%
inhibitory effect, nucleic acid copy numbers vs control group (PEDV [8]): did not show significant inhibitory effects
CC50 at 48 h (Cytotoxicity assay (MTT); [14]): 61.9 ± 0.97 µg/mL (≈ 227 µM)
virus titer vs virus control group (PEDV CV777 [9]): significantly lower
green fluorescence of viral proteins (IFA) (PEDV [10]): diminished to varying extents
viral mRNA quantitation (PEDV [11]; 3.13 μg/mL): 4.79 × 10^6 copies/μL
viral mRNA quantitation (PEDV [11]; 6.25 μg/mL): 3.21 × 10^6 copies/μL
viral mRNA quantitation (PEDV [11]; 12.5 μg/mL): 2.17 × 10^6 copies/μL
expression level of PEDV N protein (PEDV [11]): significantly inhibit
viral nucleic acid copy numbers vs control group (PEDV [12]): significantly lower than those in the control group
expression level of PEDV N protein (PEDV [12]): significantly inhibit
virus copy numbers vs control group (PEDV [13]; 12.5 μg/mL): significantly lower than in the control group

IC50 (PEDV CV777 [4]): 88 ± 3.78 µg/mL (≈ 360 µM)
IC50 (PEDV DY [5]): 71.4 ± 3.78 µg/mL (≈ 292 µM)
Compound: NC(=O)c1ncn([C@@H]2O[C@H](CO)[C@@H](O)[C@H]2O)n1 [Ribavirin, ribavirin, reference compound]
virus titer vs virus control (PEDV DY [6]; PEDV DY, 36 h, p < 0.05): significantly lower
CC50 at 48 h (Cytotoxicity assay (MTT)): 249 ± 4.2 µg/mL (≈ 1020 µM)
virus titer vs virus control (PEDV CV777 [9]; PEDV CV777, 36 h, p < 0.05): significantly lower

Compound: COC(=O)C1=CO[C@@H](O[C@@H]2O[C@H](CO)[C@@H](O)[C@H](O)[C@H]2O)[C@@H]2C(CO)=CC[C@H]12 [Geniposide, geniposide]
IC50 (PEDV CV777 [4]): > 100 µg/mL
IC50 (PEDV DY [5]): > 100 µg/mL
CC50 at 48 h (Cytotoxicity assay (MTT); [14]): 10.4 ± 2.03 µg/mL (≈ 26.7 µM)
IC50 (PEDV [3]): > 100 µg/mL

Compound: soy isoflavone
CC50 (Vero E6 cells): 53.03 ± 2.30 µg/mL

Compound: O=c1cc(-c2ccccc2)oc2cc(O)cc(O)c12 [Chrysin, chrysin]
virus titer vs virus control group (PEDV DY [6]): significantly lower
IC50 (enterovirus 71): 24.1 µM
IC50 (PEDV CV777 [4]): 2.19 ± 2.25 µg/mL (≈ 8.62 µM)
IC50 (PEDV DY [5]): 2.48 ± 0.59 µg/mL (≈ 9.77 µM)
toxic effects (mice): no toxic effects on mice
inhibitory effect, nucleic acid copy numbers vs control group (PEDV [8]): did not show significant inhibitory effects
CC50 at 48 h (Cytotoxicity assay (MTT)): 83.6 ± 2.12 µg/mL (≈ 329 µM)
virus titer vs virus control group (PEDV CV777 [9]): significantly lower
green fluorescence of viral proteins (IFA) (PEDV [10]): diminished to varying extents
viral mRNA quantitation (PEDV [11]; 12.5 μg/mL): 3.87 × 10^6 copies/μL
viral mRNA quantitation (PEDV [11]; 25 μg/mL): 1.78 × 10^6 copies/μL
viral mRNA quantitation (PEDV [11]; 50 μg/mL): 1.19 × 10^6 copies/μL
expression level of PEDV N protein (PEDV [11]): significantly inhibit
viral nucleic acid copy numbers vs control group (PEDV [12]): significantly lower than those in the control group
expression level of PEDV N protein (PEDV [12]): significantly inhibit
virus copy numbers vs control group (PEDV [13]; 50 μg/mL): significantly lower than in the control group

IC50 (PEDV [3]): > 100 µg/mL
Compound: CC1(C)CC[C@]2(C(=O)O)CC[C@]3(C)C(=CC[C@@H]4[C@@]5(C)CC[C@H](O)C(C)(C)[C@@H]5CC[C@]43C)[C@@H]2C1 [Oleanolic acid, oleanolic acid]
IC50 (PEDV CV777 [4]): > 100 µg/mL
IC50 (PEDV DY [5]): > 100 µg/mL
CC50 at 48 h (Cytotoxicity assay (MTT); [14]): 4.05 ± 3.91 µg/mL (≈ 8.88 µM)
